Source: paper PMC5218480 (PLoS ONE, 2017)

Tested on: MV-4-11 cells
Assay: Gene expression microarray analysis (Affymetrix PrimeView) and GSEA
Format: cell-based, human
Set-up: RFU PODN (11730768_x_at) / Fold change /veh PODN (11730768_x_at) / RFU LINC00158 (11744669_a_at) / Fold change /veh LINC00158 (11744669_a_at) / RFU DUSP10 (11751237_a_at) / Fold change /veh DUSP10 (11751237_a_at) / RFU ID3 (11757404_x_at) / Fold change /veh ID3 (11757404_x_at) / RFU PLEKHG5 (11737974_s_at) / Fold change /veh PLEKHG5 (11737974_s_at) / RFU LRRC4B (11730491_at) / Fold change /veh LRRC4B (11730491_at) / RFU GIMAP4 (11747438_a_at) / Fold change /veh GIMAP4 (11747438_a_at) / RFU KRT8 (11758183_x_at) / Fold change /veh KRT8 (11758183_x_at) / RFU CNN1 (11734310_a_at) / Fold change /veh CNN1 (11734310_a_at) / RFU VPS37D (11726825_at) / Fold change /veh VPS37D (11726825_at) / RFU C10orf10 (11716522_x_at) / Fold change /veh C10orf10 (11716522_x_at) / RFU KIR2DL2 /// KIR2DL4 /// KIR2DL5A /// KIR2DL5B /// KIR2DS1 /// KIR2DS2 /// KIR2DS3 /// KIR2DS4 /// KIR3DL3 /// KIR3DL3 /// KIR3DS1 (11738374_at) / Fold change /veh KIR2DL2 /// KIR2DL4 /// KIR2DL5A /// KIR2DL5B /// KIR2DS1 /// KIR2DS2 /// KIR2DS3 /// KIR2DS4 /// KIR3DL3 /// KIR3DL3 /// KIR3DS1 (11738374_at) / RFU C1QL1 (11718748_at) / Fold change /veh C1QL1 (11718748_at) / RFU TMPRSS4 (11747572_a_at) / Fold change /veh TMPRSS4 (11747572_a_at) / RFU HAMP (11756126_x_at) / Fold change /veh HAMP (11756126_x_at) / RFU RNFT2 (11725882_a_at) / Fold change /veh RNFT2 (11725882_a_at) / RFU NR4A2 (11747474_a_at) / Fold change /veh NR4A2 (11747474_a_at) / RFU ABCC12 (11746883_a_at) / Fold change /veh ABCC12 (11746883_a_at) / RFU TMEM136 (11760407_x_at) / Fold change /veh TMEM136 (11760407_x_at) / RFU CLDN22 /// WWC2 (11732394_at) / Fold change /veh CLDN22 /// WWC2 (11732394_at) / RFU HLA-DPB1 (11760878_x_at) / Fold change /veh HLA-DPB1 (11760878_x_at) / RFU SPINT1 (11716480_a_at) / Fold change /veh SPINT1 (11716480_a_at) / RFU GAP43 (11754022_s_at) / Fold change /veh GAP43 (11754022_s_at) / RFU A4GNT (11735810_at) / Fold change /veh A4GNT (11735810_at) / RFU PRB3 (11715151_x_at) / Fold change /veh PRB3 (11715151_x_at) / RFU TUBB4B (11761932_at) / Fold change /veh TUBB4B (11761932_at) / RFU CAPN14 (11732068_a_at) / Fold change /veh CAPN14 (11732068_a_at) / RFU TMCC2 (11721928_a_at) / Fold change /veh TMCC2 (11721928_a_at) / RFU IRGQ (11745062_a_at) / Fold change /veh IRGQ (11745062_a_at) / RFU FAM174B (11720279_a_at) / Fold change /veh FAM174B (11720279_a_at) / RFU TMPRSS4 (11748680_a_at) / Fold change /veh TMPRSS4 (11748680_a_at) / RFU FAM212B (11763350_a_at) / Fold change /veh FAM212B (11763350_a_at) / RFU PLEKHG5 (11743358_a_at) / Fold change /veh PLEKHG5 (11743358_a_at) / RFU ZSCAN30 (11745921_a_at) / Fold change /veh ZSCAN30 (11745921_a_at) / RFU CMKLR1 (11741424_a_at) / Fold change /veh CMKLR1 (11741424_a_at) / RFU LOC101060620 /// MAPK8IP1 (11723275_at) / Fold change /veh LOC101060620 /// MAPK8IP1 (11723275_at) / RFU SPTSSB (11747773_x_at) / Fold change /veh SPTSSB (11747773_x_at) / RFU PRSS12 (11739890_at) / Fold change /veh PRSS12 (11739890_at) / RFU BIN1 (11741810_x_at) / Fold change /veh BIN1 (11741810_x_at) / RFU WNT11 (11732464_a_at) / Fold change /veh WNT11 (11732464_a_at) / RFU C10orf10 (11716521_a_at) / Fold change /veh C10orf10 (11716521_a_at) / RFU C5orf56 (11738089_at) / Fold change /veh C5orf56 (11738089_at) / RFU CYB561 (11721691_x_at) / Fold change /veh CYB561 (11721691_x_at) / RFU ANKRD19P (11752326_a_at) / Fold change /veh ANKRD19P (11752326_a_at) / RFU OR2T12 /// OR2T33 /// OR2T8 (11738714_s_at) / Fold change /veh OR2T12 /// OR2T33 /// OR2T8 (11738714_s_at) / RFU VCAN (11748164_a_at) / Fold change /veh VCAN (11748164_a_at) / RFU JSRP1 (11732532_at) / Fold change /veh JSRP1 (11732532_at) / RFU KRTAP10-11 (11738290_x_at) / Fold change /veh KRTAP10-11 (11738290_x_at) / RFU MYO3A (11730013_a_at) / Fold change /veh MYO3A (11730013_a_at) / RFU EBF3 (11725865_a_at) / Fold change /veh EBF3 (11725865_a_at) / RFU CAMK2N1 (11719241_x_at) / Fold change /veh CAMK2N1 (11719241_x_at) / RFU C5orf56 (11738088_a_at) / Fold change /veh C5orf56 (11738088_a_at) / RFU OLFML3 (11715873_a_at) / Fold change /veh OLFML3 (11715873_a_at) / RFU LOC100653217 /// NTM (11731650_a_at) / Fold change /veh LOC100653217 /// NTM (11731650_a_at) / RFU MAPK11 (11762145_a_at) / Fold change /veh MAPK11 (11762145_a_at) / RFU FIZ1 (11724087_x_at) / Fold change /veh FIZ1 (11724087_x_at) / RFU OASL (11726364_x_at) / Fold change /veh OASL (11726364_x_at) / RFU SOX15 (11748057_x_at) / Fold change /veh SOX15 (11748057_x_at) / RFU CD79A (11719716_a_at) / Fold change /veh CD79A (11719716_a_at) / RFU HIST1H1D (11736915_at) / Fold change /veh HIST1H1D (11736915_at) / RFU CASKIN2 (11723855_a_at) / Fold change /veh CASKIN2 (11723855_a_at) / RFU LOC730098 (11760151_x_at) / Fold change /veh LOC730098 (11760151_x_at) / RFU OR4N2 (11742367_at) / Fold change /veh OR4N2 (11742367_at) / RFU PRRT2 (11749266_a_at) / Fold change /veh PRRT2 (11749266_a_at) / RFU SNX32 (11753110_a_at) / Fold change /veh SNX32 (11753110_a_at) / RFU CDHR5 (11726645_a_at) / Fold change /veh CDHR5 (11726645_a_at) / RFU RCAN1 (11760418_a_at) / Fold change /veh RCAN1 (11760418_a_at) / RFU FAM167A (11723789_a_at) / Fold change /veh FAM167A (11723789_a_at) / RFU FAM26E (11764081_at) / Fold change /veh FAM26E (11764081_at) / RFU ISYNA1 (11749810_s_at) / Fold change /veh ISYNA1 (11749810_s_at) / RFU ACY1 (11761880_at) / Fold change /veh ACY1 (11761880_at) / RFU 11764098_at / Fold change /veh 11764098_at / RFU SAMD14 (11745864_x_at) / Fold change /veh SAMD14 (11745864_x_at) / RFU NPB (11741838_a_at) / Fold change /veh NPB (11741838_a_at) / RFU TMPRSS6 (11731388_a_at) / Fold change /veh TMPRSS6 (11731388_a_at) / RFU KRTAP10-2 (11738614_at) / Fold change /veh KRTAP10-2 (11738614_at) / RFU ARHGAP8 /// PRR5-ARHGAP8 (11727945_x_at) / Fold change /veh ARHGAP8 /// PRR5-ARHGAP8 (11727945_x_at) / RFU KRTAP5-7 /// NADSYN1 (11734609_at) / Fold change /veh KRTAP5-7 /// NADSYN1 (11734609_at) / RFU RASL12 (11751679_a_at) / Fold change /veh RASL12 (11751679_a_at) / RFU CDKN2B (11736163_a_at) / Fold change /veh CDKN2B (11736163_a_at) / RFU PRF1 (11729649_at) / Fold change /veh PRF1 (11729649_at) / RFU, ZNF638 /// ZNF638-IT1 / Fold change vs veh, ZNF638 /// ZNF638-IT1 / RFU, PANK3 / Fold change vs veh, PANK3 / RFU, SH3YL1 / Fold change vs veh, SH3YL1 / RFU, ZEB2 / Fold change vs veh, ZEB2 / RFU, NRIP1 / Fold change vs veh, NRIP1 / RFU, PTTG1IP / Fold change vs veh, PTTG1IP / RFU, CAPN2 / Fold change vs veh, CAPN2 / RFU, MED14 / Fold change vs veh, MED14 / RFU, SNORA58 / Fold change vs veh, SNORA58 / RFU, C1orf63 / Fold change vs veh, C1orf63 / RFU, LRRFIP1 / Fold change vs veh, LRRFIP1 / RFU, NDUFAF7 / Fold change vs veh, NDUFAF7 / RFU, SLC12A2 / Fold change vs veh, SLC12A2 / RFU, IBTK / Fold change vs veh, IBTK / RFU, ESF1 / Fold change vs veh, ESF1 / Fold change vs veh, TMEM50B / RFU, TAOK1 / Fold change vs veh, TAOK1 / RFU, ACBD3 / Fold change vs veh, ACBD3 / RFU, TMA16 / Fold change vs veh, TMA16 / RFU, RWDD3 / Fold change vs veh, RWDD3 / RFU, BCAT1 / Fold change vs veh, BCAT1 / RFU, EDEM3 / Fold change vs veh, EDEM3 / RFU, TMEM33 / Fold change vs veh, TMEM33 / RFU, WDR75 / Fold change vs veh, WDR75 / RFU, AHCTF1 / Fold change vs veh, AHCTF1 / RFU, TFRC / Fold change vs veh, TFRC / RFU, ZDHHC17 / Fold change vs veh, ZDHHC17 / RFU, NOM1 / Fold change vs veh, NOM1 / RFU, ARL8B / Fold change vs veh, ARL8B / RFU, ZBTB11 / Fold change vs veh, ZBTB11 / RFU, TAMM41 / Fold change vs veh, TAMM41 / RFU, KIAA1704 /// LOC100996395 / Fold change vs veh, KIAA1704 /// LOC100996395 / RFU, ING1 / Fold change vs veh, ING1 / RFU, TRMT61B / Fold change vs veh, TRMT61B / RFU, FUBP3 / Fold change vs veh, FUBP3 / RFU, TP53 / Fold change vs veh, TP53 / RFU, TNKS2 / Fold change vs veh, TNKS2 / RFU, ZFP14 / Fold change vs veh, ZFP14 / RFU, ACTR2 / Fold change vs veh, ACTR2 / RFU, PPP3R1 / Fold change vs veh, PPP3R1 / RFU, PIK3R1 / Fold change vs veh, PIK3R1 / RFU, HNRNPA1 / Fold change vs veh, HNRNPA1 / RFU, RNF170 / Fold change vs veh, RNF170 / RFU, ZNF28 / Fold change vs veh, ZNF28 / RFU, RNGTT / Fold change vs veh, RNGTT / RFU, OGT / Fold change vs veh, OGT / RFU, BRD1 / Fold change vs veh, BRD1 / RFU, MARS / Fold change vs veh, MARS / RFU, ZNF655 / Fold change vs veh, ZNF655 / RFU, FAHD1 / Fold change vs veh, FAHD1 / RFU, BDP1 / Fold change vs veh, BDP1 / RFU, LRRCC1 / Fold change vs veh, LRRCC1 / RFU, ARID1A / Fold change vs veh, ARID1A / RFU, ZNF146 / Fold change vs veh, ZNF146 / RFU, ZNF330 / Fold change vs veh, ZNF330 / RFU, GPN3 / Fold change vs veh, GPN3 / RFU, C9orf123 / Fold change vs veh, C9orf123 / RFU, N4BP2L2 / Fold change vs veh, N4BP2L2 / RFU, ARFIP1 / Fold change vs veh, ARFIP1 / RFU, FAM179B / Fold change vs veh, FAM179B / RFU, BCL10 / Fold change vs veh, BCL10 / RFU, UHRF1BP1L / Fold change vs veh, UHRF1BP1L / RFU, BET1 / Fold change vs veh, BET1 / RFU, CNOT2 / Fold change vs veh, CNOT2 / RFU, ZNF268 / Fold change vs veh, ZNF268 / Fold change vs veh, ZNF507 / RFU, DGCR2 / Fold change vs veh, DGCR2 / RFU, WDSUB1 / Fold change vs veh, WDSUB1 / Fold change vs veh, HSP90B1 /// MIR3652 / RFU, ADSS / Fold change vs veh, ADSS / RFU, GK / Fold change vs veh, GK / RFU, ZNF148 / Fold change vs veh, ZNF148 / RFU, TAF9 / Fold change vs veh, TAF9 / RFU, SLC1A5 / Fold change vs veh, SLC1A5 / RFU, SLMO2 / Fold change vs veh, SLMO2 / RFU, ABCC4 / Fold change vs veh, ABCC4 / RFU, LOC101060439 /// RAP1B / Fold change vs veh, LOC101060439 /// RAP1B / RFU, RFX7 / Fold change vs veh, RFX7 / RFU, GTPBP10 / Fold change vs veh, GTPBP10 / RFU, CNEP1R1 / Fold change vs veh, CNEP1R1 / RFU, BIVM-ERCC5 /// ERCC5 / Fold change vs veh, BIVM-ERCC5 /// ERCC5 / RFU, ILF3 / Fold change vs veh, ILF3 / RFU 11762660_at / Fold change /veh 11762660_at / RFU VCAN (11757783_s_at) / Fold change /veh VCAN (11757783_s_at) / RFU DDX43 (11728927_at) / Fold change /veh DDX43 (11728927_at) / RFU KRT8 (11758188_x_at) / Fold change /veh KRT8 (11758188_x_at) / RFU NKD1 (11759106_at) / Fold change /veh NKD1 (11759106_at) / RFU SRD5A1 (11742802_a_at) / Fold change /veh SRD5A1 (11742802_a_at) / RFU TPSAB1 /// TPSB2 (11721975_s_at) / Fold change /veh TPSAB1 /// TPSB2 (11721975_s_at) / RFU GSTM3 (11746129_a_at) / Fold change /veh GSTM3 (11746129_a_at) / RFU IL23R (11737362_x_at) / Fold change /veh IL23R (11737362_x_at) / RFU TMEM51 (11727254_a_at) / Fold change /veh TMEM51 (11727254_a_at) / RFU PIWIL2 (11732686_x_at) / Fold change /veh PIWIL2 (11732686_x_at) / RFU ORM1 (11744905_x_at) / Fold change /veh ORM1 (11744905_x_at) / RFU CCDC152 (11743942_at) / Fold change /veh CCDC152 (11743942_at) / RFU ECM1 (11717891_a_at) / Fold change /veh ECM1 (11717891_a_at) / RFU IL23R (11748794_a_at) / Fold change /veh IL23R (11748794_a_at) / RFU TNFAIP8L3 (11732012_x_at) / Fold change /veh TNFAIP8L3 (11732012_x_at) / RFU MBOAT4 (11741988_at) / Fold change /veh MBOAT4 (11741988_at) / RFU 11764193_at / Fold change /veh 11764193_at / RFU TMEM53 (11763286_at) / Fold change /veh TMEM53 (11763286_at) / RFU MAGEB2 (11727129_at) / Fold change /veh MAGEB2 (11727129_at) / RFU TMEM200A (11744735_a_at) / Fold change /veh TMEM200A (11744735_a_at) / RFU CCDC152 (11751479_a_at) / Fold change /veh CCDC152 (11751479_a_at) / RFU FAM211A (11726209_a_at) / Fold change /veh FAM211A (11726209_a_at) / RFU RGS16 (11746705_a_at) / Fold change /veh RGS16 (11746705_a_at) / RFU VCAN (11755009_s_at) / Fold change /veh VCAN (11755009_s_at) / RFU RHOB (11743442_s_at) / Fold change /veh RHOB (11743442_s_at) / RFU RGS16 (11720943_a_at) / Fold change /veh RGS16 (11720943_a_at) / RFU RGS16 (11720944_at) / Fold change /veh RGS16 (11720944_at) / RFU, VPS4B / Fold change vs veh, VPS4B / RFU, CREB1 / Fold change vs veh, CREB1 / RFU, DNAJC13 / Fold change vs veh, DNAJC13 / RFU, GNAQ / Fold change vs veh, GNAQ / RFU, CDK5R1 / Fold change vs veh, CDK5R1 / RFU, ZRANB3 / Fold change vs veh, ZRANB3 / RFU, CUL4A / Fold change vs veh, CUL4A / RFU, CCNY / Fold change vs veh, CCNY / RFU, UFL1 / Fold change vs veh, UFL1 / RFU, COG3 / Fold change vs veh, COG3 / RFU, DIAPH2 / Fold change vs veh, DIAPH2 / RFU, SKA2 / Fold change vs veh, SKA2 / RFU, AFF3 / Fold change vs veh, AFF3 / RFU, LMF1 / Fold change vs veh, LMF1 / RFU, IPO11 / Fold change vs veh, IPO11 / RFU, DFFB / Fold change vs veh, DFFB / RFU, FOXP1 / Fold change vs veh, FOXP1 / RFU, CARD8 / Fold change vs veh, CARD8 / RFU, STRN3 / Fold change vs veh, STRN3 / RFU, ADK / Fold change vs veh, ADK / RFU, RASSF2 / Fold change vs veh, RASSF2 / RFU, WIPF1 / Fold change vs veh, WIPF1 / RFU, LARP1B / Fold change vs veh, LARP1B / RFU, RASA1 / Fold change vs veh, RASA1 / RFU, RB1 / Fold change vs veh, RB1 / RFU, PPFIA1 / Fold change vs veh, PPFIA1 / RFU, MAT2A / Fold change vs veh, MAT2A / RFU, CCT5 / Fold change vs veh, CCT5 / RFU, WDR92 / Fold change vs veh, WDR92 / RFU, CUX1 / Fold change vs veh, CUX1 / RFU, TTC7A / Fold change vs veh, TTC7A / RFU, TMEM135 / Fold change vs veh, TMEM135 / RFU, DEPTOR / Fold change vs veh, DEPTOR / RFU, CPM / Fold change vs veh, CPM / RFU, DNAJB6 / Fold change vs veh, DNAJB6 / RFU, CACNA2D3 / Fold change vs veh, CACNA2D3 / RFU, DTX4 / Fold change vs veh, DTX4 / RFU, TFCP2 / Fold change vs veh, TFCP2 / RFU, GMCL1 /// GMCL1P1 / Fold change vs veh, GMCL1 /// GMCL1P1 / RFU, AEBP2 / Fold change vs veh, AEBP2 / RFU, SNHG1 /// SNORD22 /// SNORD25 /// SNORD26 /// SNORD27 /// SNORD28 /// SNORD29 /// SNORD31 / Fold change vs veh, SNHG1 /// SNORD22 /// SNORD25 /// SNORD26 /// SNORD27 /// SNORD28 /// SNORD29 /// SNORD31 / Fold change (Aza/veh), C12orf56 (ProbeSet 11735607_a_at) / Fold change (ACY-1035/veh), C12orf56 (ProbeSet 11735607_a_at) / Fold change (Aza/veh), FGFR1OP (ProbeSet 11751329_s_at) / Fold change (ACY-1035/veh), FGFR1OP (ProbeSet 11751329_s_at) / Fold change (Aza/veh), VPS36 (ProbeSet 11739960_a_at) / Fold change (ACY-1035/veh), VPS36 (ProbeSet 11739960_a_at) / RFU SYPL1 (11715823_x_at) / Fold change /veh SYPL1 (11715823_x_at) / RFU IGFBP7 (11715501_s_at) / Fold change /veh IGFBP7 (11715501_s_at) / RFU REEP3 (11722064_at) / Fold change /veh REEP3 (11722064_at) / RFU IGLL1 (11728026_x_at) / Fold change /veh IGLL1 (11728026_x_at): dose or concentration left out as unconfirmed
Conditions: MV-4-11 cells, 48 hours

Question: For `Nc1ncn([C@@H]2O[C@H](CO)[C@@H](O)[C@H]2O)c(=O)n1` [azacitidine], which “RFU CASKIN2 (11723855_a_at)” value is on record?
Answer: Its value is 31.47 RFU.
